Test results taken from ChEMBL document CHEMBL1201862, “PubChem BioAssay data set” (2004).
Active and inactive are the calls of the source.

Assays:
[1] = Luminescence Cell-Based Dose Confirmation HTS to Identify Inhibitors of Platelet Dense Granule Release. [Related pubchem assays: 1663 (Primary HTS), 1678 (Summary of Project)]; assay type: functional
[2] = target: Luciferin 4-monooxygenase (Photinus pyralis, UniProt P08659); assay: firefly luciferase enzyme inhibitors, dose response, biochemical, luminescence (AID 1891)
Chain of Luciferin 4-monooxygenase (P08659 whole entry): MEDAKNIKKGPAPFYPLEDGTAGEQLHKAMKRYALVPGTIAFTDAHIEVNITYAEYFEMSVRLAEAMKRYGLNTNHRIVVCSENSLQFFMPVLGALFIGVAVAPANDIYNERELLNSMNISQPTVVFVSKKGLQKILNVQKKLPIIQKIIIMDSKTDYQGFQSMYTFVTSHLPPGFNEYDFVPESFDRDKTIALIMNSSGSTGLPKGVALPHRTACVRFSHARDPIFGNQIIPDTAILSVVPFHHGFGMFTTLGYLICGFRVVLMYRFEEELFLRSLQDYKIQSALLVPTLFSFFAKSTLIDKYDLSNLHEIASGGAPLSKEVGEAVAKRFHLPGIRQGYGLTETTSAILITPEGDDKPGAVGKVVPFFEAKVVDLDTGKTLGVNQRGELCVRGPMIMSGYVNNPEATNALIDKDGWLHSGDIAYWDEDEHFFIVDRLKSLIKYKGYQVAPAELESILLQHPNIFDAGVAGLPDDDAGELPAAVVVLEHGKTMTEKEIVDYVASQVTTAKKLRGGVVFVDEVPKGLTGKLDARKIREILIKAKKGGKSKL

cells = assay type: functional, cell-based; details: HEK-CNG
Galanin receptor type 3 = target: T1, Galanin receptor type 3 (Homo sapiens, UniProt O60755); assay: Fluorescence-based cell-based primary high throughput dose response assay to identify antagonists of the Galanin Receptor 3 (GalR3).; assay type: functional
T1 sequence (O60755 whole entry): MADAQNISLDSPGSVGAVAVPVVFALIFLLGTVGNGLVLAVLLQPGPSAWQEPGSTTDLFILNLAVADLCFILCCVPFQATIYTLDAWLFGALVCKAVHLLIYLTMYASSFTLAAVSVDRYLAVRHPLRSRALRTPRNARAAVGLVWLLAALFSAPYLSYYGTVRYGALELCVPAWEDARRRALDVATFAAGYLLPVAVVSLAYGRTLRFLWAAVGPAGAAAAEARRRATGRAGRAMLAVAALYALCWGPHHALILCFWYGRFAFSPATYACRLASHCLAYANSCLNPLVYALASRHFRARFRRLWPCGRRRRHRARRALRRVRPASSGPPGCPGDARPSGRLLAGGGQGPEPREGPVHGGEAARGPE

Fatty acid synthase [3] = target: T2, Fatty acid synthase (Homo sapiens, UniProt P49327); assay: FAS thioesterase domain inhibitors, dose response, biochemical, endpoint fluorescence intensity, uHTS hits (AID 624327); assay type: functional;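 note: fluorescence from hydrolysis of an O-methyl fluorescein acyl ester substrate by the enzyme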
T2 sequence (P49327 whole entry, the tested form may be a part): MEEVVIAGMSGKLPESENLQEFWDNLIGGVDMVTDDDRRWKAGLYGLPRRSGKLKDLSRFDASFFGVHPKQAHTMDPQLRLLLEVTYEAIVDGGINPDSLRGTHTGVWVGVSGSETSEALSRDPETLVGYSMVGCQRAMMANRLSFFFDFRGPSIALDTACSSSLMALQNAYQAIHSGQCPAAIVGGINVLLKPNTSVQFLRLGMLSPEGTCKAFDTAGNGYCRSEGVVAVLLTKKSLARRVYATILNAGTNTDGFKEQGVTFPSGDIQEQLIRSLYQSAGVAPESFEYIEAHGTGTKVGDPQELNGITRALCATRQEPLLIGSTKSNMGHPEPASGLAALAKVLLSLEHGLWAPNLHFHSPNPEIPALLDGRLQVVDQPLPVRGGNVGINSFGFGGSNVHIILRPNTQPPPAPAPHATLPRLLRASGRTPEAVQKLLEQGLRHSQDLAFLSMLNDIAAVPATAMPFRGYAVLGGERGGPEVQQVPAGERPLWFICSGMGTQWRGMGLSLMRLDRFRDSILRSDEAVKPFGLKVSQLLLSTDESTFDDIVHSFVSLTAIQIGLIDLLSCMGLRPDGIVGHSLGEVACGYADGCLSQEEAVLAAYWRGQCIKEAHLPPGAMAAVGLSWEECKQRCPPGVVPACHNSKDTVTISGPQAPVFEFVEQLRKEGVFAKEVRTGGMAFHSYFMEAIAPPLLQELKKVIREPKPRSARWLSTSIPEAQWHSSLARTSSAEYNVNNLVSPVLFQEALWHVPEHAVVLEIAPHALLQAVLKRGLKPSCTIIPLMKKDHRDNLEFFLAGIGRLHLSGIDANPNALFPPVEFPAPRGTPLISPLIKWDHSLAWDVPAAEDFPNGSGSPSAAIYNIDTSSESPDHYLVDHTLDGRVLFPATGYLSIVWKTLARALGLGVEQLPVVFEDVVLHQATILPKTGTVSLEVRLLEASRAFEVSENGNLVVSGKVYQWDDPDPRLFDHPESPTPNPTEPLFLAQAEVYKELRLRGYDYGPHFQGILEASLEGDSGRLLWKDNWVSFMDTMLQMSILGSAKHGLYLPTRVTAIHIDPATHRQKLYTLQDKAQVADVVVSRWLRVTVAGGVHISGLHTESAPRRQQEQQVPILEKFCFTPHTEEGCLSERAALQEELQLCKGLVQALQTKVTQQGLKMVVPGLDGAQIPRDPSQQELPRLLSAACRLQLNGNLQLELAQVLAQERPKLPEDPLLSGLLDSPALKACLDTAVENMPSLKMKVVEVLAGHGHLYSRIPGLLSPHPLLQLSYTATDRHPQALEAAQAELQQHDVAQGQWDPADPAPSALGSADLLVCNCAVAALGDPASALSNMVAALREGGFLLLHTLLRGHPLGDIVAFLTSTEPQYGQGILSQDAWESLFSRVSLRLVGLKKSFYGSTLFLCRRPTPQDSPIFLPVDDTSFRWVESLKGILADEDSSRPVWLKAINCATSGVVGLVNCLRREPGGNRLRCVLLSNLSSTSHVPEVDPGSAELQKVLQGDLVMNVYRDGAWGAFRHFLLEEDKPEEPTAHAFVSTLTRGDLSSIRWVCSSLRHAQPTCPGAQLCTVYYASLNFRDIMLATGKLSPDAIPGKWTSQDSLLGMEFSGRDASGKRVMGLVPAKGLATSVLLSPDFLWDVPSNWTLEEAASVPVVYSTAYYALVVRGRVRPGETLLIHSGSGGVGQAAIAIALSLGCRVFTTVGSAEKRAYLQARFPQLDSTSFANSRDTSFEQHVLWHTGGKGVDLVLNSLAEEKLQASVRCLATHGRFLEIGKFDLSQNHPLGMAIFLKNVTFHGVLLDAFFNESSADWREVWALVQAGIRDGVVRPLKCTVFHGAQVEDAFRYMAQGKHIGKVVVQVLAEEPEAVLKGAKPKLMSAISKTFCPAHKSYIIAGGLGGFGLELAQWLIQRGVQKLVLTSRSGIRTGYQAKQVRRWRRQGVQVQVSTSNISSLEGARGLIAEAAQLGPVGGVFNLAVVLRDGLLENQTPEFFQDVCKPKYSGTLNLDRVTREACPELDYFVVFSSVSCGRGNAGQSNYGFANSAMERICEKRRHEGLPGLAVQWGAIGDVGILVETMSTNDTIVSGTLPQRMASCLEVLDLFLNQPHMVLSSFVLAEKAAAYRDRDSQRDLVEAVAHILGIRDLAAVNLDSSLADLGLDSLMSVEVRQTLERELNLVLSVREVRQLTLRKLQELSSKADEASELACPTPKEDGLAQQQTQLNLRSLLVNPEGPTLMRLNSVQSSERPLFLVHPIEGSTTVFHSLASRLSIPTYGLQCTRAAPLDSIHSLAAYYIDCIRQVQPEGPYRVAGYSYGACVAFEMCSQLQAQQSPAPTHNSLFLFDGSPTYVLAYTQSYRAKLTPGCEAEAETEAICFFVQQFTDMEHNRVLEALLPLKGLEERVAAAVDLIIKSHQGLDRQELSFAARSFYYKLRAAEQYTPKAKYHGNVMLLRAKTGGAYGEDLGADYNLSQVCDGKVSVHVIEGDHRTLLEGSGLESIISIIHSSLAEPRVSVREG

Fatty acid synthase [4] = target: T2, Fatty acid synthase; assay: FAS thioesterase domain inhibitors, dose response, biochemical, kinetic fluorescence intensity (AID 624326); assay type: functional;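 note: rate of fluorescence rise from hydrolysis of a fluorogenic O-methyl fluorescein ester substrate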
[5] = Luminescence-based cell-based high throughput dose response assay to identify activators of the DAF-12 from the parasite S. stercoralis (ssDAF-12).; assay type: functional
[6] = inhibitors of SNCA 5'UTR-driven reporter translation, confirmation, H4 neuroglioma cells, luminescence (AID 1988); assay type: functional, cell-based
[7] = Luminescence Cell-Based Dose Response HTS to Identify Inhibitors of 5'UTR Stem-Loop Driven Prion Protein mRNA Translation in H4 Neuroglioblastoma Cells. [Related pubchem assays: 1827 (Project Summary), 1813 (Primary HTS)]; assay type: functional
[8] = target: T3, Oxysterols receptor LXR-beta (Homo sapiens, UniProt P55055); assay: LXR agonists, Gal4 luciferase reporter, dose response, counter-screen for ssDAF-12 agonist project, cell-based, luminescence, HEK293, S. stercoralis campaign (AID 720737); assay type: functional; details: read-out: IC50 (the source's name)
T3 sequence (P55055 whole entry): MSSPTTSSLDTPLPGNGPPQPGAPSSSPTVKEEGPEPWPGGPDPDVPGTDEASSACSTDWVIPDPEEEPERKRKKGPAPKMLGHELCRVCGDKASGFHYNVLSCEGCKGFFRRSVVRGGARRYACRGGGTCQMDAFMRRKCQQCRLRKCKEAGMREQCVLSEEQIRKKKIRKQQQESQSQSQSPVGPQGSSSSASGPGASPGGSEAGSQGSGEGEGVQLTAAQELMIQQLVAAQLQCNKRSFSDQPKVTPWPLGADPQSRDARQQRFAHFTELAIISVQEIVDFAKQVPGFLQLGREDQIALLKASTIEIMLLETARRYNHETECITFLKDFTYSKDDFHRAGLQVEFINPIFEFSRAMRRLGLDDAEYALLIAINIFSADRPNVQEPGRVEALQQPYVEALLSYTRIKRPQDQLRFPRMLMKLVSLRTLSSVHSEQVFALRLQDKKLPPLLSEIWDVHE

[9] = human group III sPLA2 inhibitors, dose response, biochemical, QFRET, IC50 (AID 743457);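 note: green fluorescence rise as the enzyme cleaves BODIPY PC-A2 in liposomes; potency for inhibition of the enzyme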
[10] = HeLa cell cytotoxicity, dose response, cytotoxicity control for MgcRacGAP inhibitor project (AID 624300); assay type: functional
[11] = target: T4, Rac GTPase-activating protein 1 (Homo sapiens, UniProt Q9H0H5); assay: MgcRacGAP GTPase-activating activity inhibitors, confirmation, biochemical, ADP Hunter fluorescence, primary and confirmatory (AID 624330); assay type: functional
T4 sequence (Q9H0H5 whole entry): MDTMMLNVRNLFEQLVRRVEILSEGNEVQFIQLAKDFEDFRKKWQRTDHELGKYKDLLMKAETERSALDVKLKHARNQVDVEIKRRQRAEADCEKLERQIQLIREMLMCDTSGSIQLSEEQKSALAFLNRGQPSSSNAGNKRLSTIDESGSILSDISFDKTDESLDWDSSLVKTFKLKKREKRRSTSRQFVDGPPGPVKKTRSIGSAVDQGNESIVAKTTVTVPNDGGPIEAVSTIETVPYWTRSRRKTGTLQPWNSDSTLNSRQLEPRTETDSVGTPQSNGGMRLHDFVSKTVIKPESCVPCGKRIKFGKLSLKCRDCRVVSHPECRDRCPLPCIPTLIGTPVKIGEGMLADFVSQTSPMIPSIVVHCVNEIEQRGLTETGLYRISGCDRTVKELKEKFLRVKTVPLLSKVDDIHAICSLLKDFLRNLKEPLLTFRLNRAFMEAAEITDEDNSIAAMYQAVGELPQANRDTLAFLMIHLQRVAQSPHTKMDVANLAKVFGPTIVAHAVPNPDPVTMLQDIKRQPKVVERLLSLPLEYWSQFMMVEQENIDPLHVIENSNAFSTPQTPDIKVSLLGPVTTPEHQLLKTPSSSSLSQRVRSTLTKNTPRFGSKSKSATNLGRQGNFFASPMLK

[12] = target: Photoreceptor-specific nuclear receptor (Homo sapiens, UniProt Q9Y5X4); assay type: functional, cell-based;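 note: CHO-S cells with Gal4-NCOR and VP16-NR2E3 two-hybrid luciferase reporter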
Chain of Photoreceptor-specific nuclear receptor (Q9Y5X4 whole entry, the tested form may be a part): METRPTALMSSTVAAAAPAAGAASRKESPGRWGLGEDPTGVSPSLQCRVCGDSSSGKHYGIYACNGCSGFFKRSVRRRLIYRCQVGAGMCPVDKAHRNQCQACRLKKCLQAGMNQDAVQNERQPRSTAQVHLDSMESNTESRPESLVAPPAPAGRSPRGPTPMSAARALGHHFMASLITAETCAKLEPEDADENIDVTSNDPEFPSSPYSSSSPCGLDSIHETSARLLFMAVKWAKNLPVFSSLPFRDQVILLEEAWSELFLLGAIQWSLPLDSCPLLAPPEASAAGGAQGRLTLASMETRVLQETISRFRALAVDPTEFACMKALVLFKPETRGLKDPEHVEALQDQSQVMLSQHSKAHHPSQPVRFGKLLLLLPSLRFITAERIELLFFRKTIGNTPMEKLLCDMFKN

Interleukin-8 [13] = target: T5, Interleukin-8 (Homo sapiens, UniProt P10145); assay: Dose Response confirmation of uHTS small molecule hits for cystic fibrosis induced NFkb Inhibitors in a PAF-induced IL8 counterscreen.; assay type: functional; details: read-out: IC50_Mean
T5 sequence (P10145 whole entry): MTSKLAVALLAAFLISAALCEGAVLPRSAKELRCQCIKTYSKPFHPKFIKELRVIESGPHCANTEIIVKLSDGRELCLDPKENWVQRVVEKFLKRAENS

Interleukin-8 [14] = target: T5, Interleukin-8; assay: Dose Response confirmation of uHTS small molecule hits for cystic fibrosis induced NFkb Inhibitors in a TNFa-induced IL8 counterscreen.; assay type: functional; details: read-out: IC50_Mean
[15] = P. falciparum 3D7-ScDHODH growth inhibitors, dose response, SYBR Green, dry powder samples (AID 1159570); assay type: functional, cell-based;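 note: parasite growth measured after 72 hours of compound exposure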
[16] = MC4R antagonists, dose response, counter-screen for LGR2 antagonist project, cell-based, plate reader, cherry pick (AID 743444); assay type: functional;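 note: transfected HEK 293 cells stimulated with alpha-MSH peptide; potency of inhibitors of the alpha-MSH evoked signal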
[17] = HepG2 cell cytotoxicity, dose response, cytotoxicity control, plate reader, cherry-pick, antagonist series (AID 743416); assay type: functional, cell-based
[18] = cytotoxicity in OVCAR8 ovarian cancer cells, dose response, PAX8 project, cell-based, plate reader, dry powder samples (AID 743197); assay type: functional; details: OVCAR-8
[19] = A549 cell cytotoxicity, dose response, cytotoxicity control, plate reader, cherry-pick, antagonist series (AID 743412); assay type: functional, cell-based
[20] = LGR2 antagonists, dose response, cell-based, HEK293, CRE-luciferase reporter, cherry pick, set 2 (AID 743343); assay type: functional;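 note: transfected cells were stimulated with diluted bursicon conditioned medium after compound addition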
Paired box protein Pax-8 = Paired box protein Pax-8 (Homo sapiens, UniProt Q06710); assay: inhibitors of PAX8-driven TPO luciferase reporter, dose response, RMG-I cells, cherry-pick (AID 687027); assay type: functional, cell-based;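 note: luciferase reporter driven by Pax8 target thyroperoxidase promoter measured by SteadyGlo luminescence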
Chain of Paired box protein Pax-8 (Q06710 whole entry): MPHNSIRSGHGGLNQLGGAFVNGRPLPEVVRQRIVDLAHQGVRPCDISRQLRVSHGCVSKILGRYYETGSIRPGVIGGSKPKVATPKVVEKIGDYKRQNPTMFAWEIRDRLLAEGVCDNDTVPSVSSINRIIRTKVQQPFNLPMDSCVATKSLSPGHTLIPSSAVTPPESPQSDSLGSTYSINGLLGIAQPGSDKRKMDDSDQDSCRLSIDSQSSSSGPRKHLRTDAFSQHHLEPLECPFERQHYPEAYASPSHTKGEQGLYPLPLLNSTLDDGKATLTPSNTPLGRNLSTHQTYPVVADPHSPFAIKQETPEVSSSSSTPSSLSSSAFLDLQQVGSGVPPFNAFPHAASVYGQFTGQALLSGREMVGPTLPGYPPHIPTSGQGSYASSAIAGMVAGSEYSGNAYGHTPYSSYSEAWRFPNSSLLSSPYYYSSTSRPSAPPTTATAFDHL

[21] = P. falciparum Dd2 growth inhibitors, dose response, SYBR Green, cherry-picked samples (AID 1159567); assay type: functional, cell-based
[22] = HepG2 cell cytotoxicity, dose response, cytotoxicity control, plate reader, dry powder samples (AID 1159569); assay type: functional, cell-based;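 note: inhibitor potency with signal falling toward the positive control level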
[23] = P. falciparum ATP4 D1247Y mutant growth inhibitors, dose response, NITD609-resistant line, SYBR Green, dry powder (AID 1159571); assay type: functional, cell-based;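 note: parasites synchronized at ring stage by sorbitol before testing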
[24] = HepG2 cell cytotoxicity, dose response, cytotoxicity control, cherry-picked samples (AID 1159577); assay type: functional, cell-based
[25] = P. falciparum Dd2 growth inhibitors, dose response, SYBR Green, dry powder samples (AID 1159566); assay type: functional, cell-based;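 note: potency for growth inhibition with lower SYBR green DNA signal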
[26] = inhibitors of intracellular T. cruzi replication, confirmation, NIH3T3 host cells, beta-gal luminescence (AID 2044); assay type: functional, cell-based;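 note: intracellular parasites grown in NIH/3T3 mouse fibroblasts as host cells; luminescent beta-galactosidase reporter signal from transgenic T. cruzi replicating inside host cells; inhibitors lower the luminescence signal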
[27] = cytotoxicity toward NIH3T3 fibroblasts, dose response, counter-screen, cell-based, ATP luminescence, mouse fibroblasts (AID 2010); assay type: functional;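 note: cells exposed to compound for about 90 hours before reading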
Vero = assay: cells; assay type: functional; details: Chlorocebus sabaeus

## CC1CC(=O)NN=C1c1ccc(N)c([N+](=O)[O-])c1 (stereo not given)
[1]
  EC50: < 88 nM (active)
[2]
  EC50: > 112 µM (not active)
cells
  EC50: > 29.9 µM (inactive)
Galanin receptor type 3
  IC50: 260 nM (active)

## O=C(COC(=O)c1cccc([N+](=O)[O-])c1)NCc1cccs1
Fatty acid synthase [3]
  IC50: 13.9 µM (active)
Fatty acid synthase [4]
  IC50: 18.7 µM (active)

## COc1cccc(C(=O)Cn2c(=N)n(C)c3ccccc32)c1
[5]
  IC50: > 67.5 µM (inactive)
[6]
  EC50: 6.57 µM (active)
[7]
  EC50: 17.7 µM (active)
[8]
  EC50: > 67.5 µM (inactive)

## COc1cccc(C(=O)Oc2cc3c4c(c2)C(C)=CC(C)(C)N4C(=O)C3=O)c1
[9]
  IC50: 43.2 µM (inactive)

## COc1cc2c(cc1NC(=O)C(Cl)Cl)-c1ccc(NC(=O)C(Cl)Cl)cc1C2
[10]
  CC50: 10.3 µM (active)
[11]
  IC50: 58.4 µM (active)

## CCC1(O)C(=O)OCc2c1cc1n(c2=O)Cc2cc3cc(O)ccc3nc2-1 (stereo not given)
[12]
  IC50: 4.21 µM (active)
Interleukin-8 [13]
  IC50: 3 µM (active)
Interleukin-8 [14]
  IC50: 40.5 µM (inactive)

## N=C(N)SCc1ccc(Cl)c2ccccc12
[9]
  IC50: > 122 µM (inactive)

## C[C@@H]1CN([C@H](C)CO)C(=O)c2c(c3ccccc3n2C)-c2ccccc2CO[C@@H]1CN(C)S(=O)(=O)c1ccc(C(F)(F)F)cc1
[15]
  AC50: 3.33 µM (active)
[16]
  AC50: 35.3 µM (active)
[17]
  AC50: 17.7 µM (active)
[18]
  AC50: > 70 µM (inactive)
[19]
  AC50: 19.4 µM (active)
[20]
  AC50: 25.9 µM (active)
Paired box protein Pax-8
  AC50: 5.24 µM (active)
[21]
  AC50: 2.41 µM (active)
[22]
  AC50: 15.1 µM (active)
[23]
  AC50: 2.62 µM (active)
[24]
  AC50: > 42 µM (inactive)
[25]
  AC50: 1.76 µM (active)

## N=C(N)N/N=C/c1ccc(Cl)cc1Cl
[10]
  CC50: 66.3 µM (active)
[26]
  EC50: 204 nM (active)
[27]
  EC50: 19.4 µM (active)
Vero
  CC50: 18.9 µM (active)

## Cc1ccc(/N=C/c2cc3c(cc2O)OC(N)=C(C#N)C3c2ccccc2)cc1 (stereo not given)
Interleukin-8 [13]
  IC50: 5.76 µM (active)
Interleukin-8 [14]
  IC50: > 79 µM (inactive)

## COc1cc(/C=N/NC(=O)c2cccc(NC(=O)c3ccccc3C)c2)ccc1O
[10]
  CC50: 100 µM (active)
[11]
  IC50: 35.9 µM (active)

## COc1cccc(C#Cc2ccc([C@@H]3[C@@H](CO)N(C(=O)C4CCCC4)[C@H]3C#N)cc2)c1
[21]
  AC50: 4.4 µM (active)
[24]
  AC50: > 39 µM (inactive)

## Cc1ccc(-c2ccc3c(c2)O[C@@H](CN(C)Cc2ccncc2)[C@H](C)CN([C@@H](C)CO)S3(=O)=O)cc1
[15]
  AC50: 2.23 µM (active)
[21]
  AC50: 2.73 µM (active)
[22]
  AC50: 24.4 µM (active)
[23]
  AC50: 2.19 µM (active)
[24]
  AC50: > 39 µM (inactive)
[25]
  AC50: 2.2 µM (active)
